The supplement of paper PMC13380429

Columns and labels:
Conditions in all cases: 72 h
U2OS [1] = test: cell viability relative to DMSO; higher = less toxic
Caco-2 [2] = test: as above
Calu-3 [3] = test: as above
Vero E6 [4] = test: as above
HepG2 [5] = test: as above
U2OS [6] = test: drug sensitivity score (DSS) for viability; higher = more toxic; extreme values may be limits of the assay
Caco-2 [7] = test: as above
Calu-3 [8] = test: as above
Vero E6 [9] = test: as above
HepG2 [10] = test: as above
U2OS [11] = test: relative viability EC50 (midpoint between 100% and the lowest measured viability); higher = less toxic
Caco-2 [12] = test: as above
Calu-3 [13] = test: as above
Vero E6 [14] = test: as above
HepG2 [15] = test: as above

Compound | cell viability (U2OS [1]; 1 nM) [%] | cell viability (U2OS [1]; 10 nM) [%] | cell viability (U2OS [1]; 100 nM) [%] | cell viability (U2OS [1]; 1000 nM) [%] | cell viability (U2OS [1]; 10000 nM) [%] | cell viability (Caco-2 [2]; 1 nM) [%] | cell viability (Caco-2 [2]; 10 nM) [%] | cell viability (Caco-2 [2]; 100 nM) [%] | cell viability (Caco-2 [2]; 1000 nM) [%] | cell viability (Caco-2 [2]; 10000 nM) [%] | cell viability (Calu-3 [3]; 1 nM) [%] | cell viability (Calu-3 [3]; 10 nM) [%] | cell viability (Calu-3 [3]; 100 nM) [%] | cell viability (Calu-3 [3]; 1000 nM) [%] | cell viability (Calu-3 [3]; 10000 nM) [%] | cell viability (Vero E6 [4]; 1 nM) [%] | cell viability (Vero E6 [4]; 10 nM) [%] | cell viability (Vero E6 [4]; 100 nM) [%] | cell viability (Vero E6 [4]; 1000 nM) [%] | cell viability (Vero E6 [4]; 10000 nM) [%] | cell viability (HepG2 [5]; 1 nM) [%] | cell viability (HepG2 [5]; 10 nM) [%] | cell viability (HepG2 [5]; 100 nM) [%] | cell viability (HepG2 [5]; 1000 nM) [%] | cell viability (HepG2 [5]; 10000 nM) [%] | drug sensitivity score (U2OS [6]) | drug sensitivity score (Caco-2 [7]) | drug sensitivity score (Calu-3 [8]) | drug sensitivity score (Vero E6 [9]) | drug sensitivity score (HepG2 [10]) | relative viability EC50 (U2OS [11]) [µM] | relative viability EC50 (Caco-2 [12]) [µM] | relative viability EC50 (Calu-3 [13]) [µM] | relative viability EC50 (Vero E6 [14]) [µM] | relative viability EC50 (HepG2 [15]) [µM]
CN(C)[C@@H]1C(O)=C(C(N)=O)C(=O)[C@@]2(O)C(O)=C3C(=O)c4c(O)cccc4[C@@](C)(O)[C@H]3C[C@@H]12 [tetracycline] | 104 | 98.5 | 102 | 95 | 97.2 | 101 | 88.2 | 98.8 | 97.1 | 93.8 | 99.6 | 106 | 100 | 107 | 108 | 100 | 102 | 100 | 101 | 95.5 | 107 | 96.4 | 107 | 108 | 95.4 | 0 | 0 | 0 | 0 | 0 | > 10 | > 10 | > 10 | > 10 | > 10
Cn1cnc2c1c(=O)[nH]c(=O)n2C [theobromine] | 92.6 | 101 | 95.7 | 97.6 | 100 | 99.1 | 110 | 106 | 121 | 104 | 91.3 | 90.3 | 100 | 97.4 | 98.8 | 101 | 92.7 | 103 | 98 | 103 | 87.6 | 79.8 | 99.3 | 95.7 | 95.6 | 0 | 0 | 0 | 0 | 0 | > 10 | > 10 | > 10 | > 10 | > 10
O=c1sn(-c2cccc3ccccc23)c(=O)n1Cc1ccccc1 [tideglusib] | 98 | 101 | 103 | 102 | 97 | 95.6 | 90.2 | 102 | 98.9 | 110 | 108 | 97.7 | 106 | 99 | 97.2 | 97 | 96.8 | 97 | 93.9 | 100 | 90.7 | 106 | 100 | 98.8 | 103 | 0 | 0 | 0 | 0 | 0 | > 10 | > 10 | > 10 | > 10 | > 10
N#Cc1cn([C@@H]2O[C@H](CO)[C@@H](O)[C@H]2O)c2ncnc(N)c12 [toyocamycin] | 94.5 | 56.7 | 9.5 | 2.5 | 1 | 94.4 | 35 | 42.8 | 34.9 | 38.6 | 93 | 73.8 | 27.8 | 14.5 | 9.8 | 88.1 | 84.4 | 2.2 | 2.8 | 1.8 | 89.1 | 50.3 | 8.3 | -0.4 | 0.1 | 34.2 | 29.7 | 27.7 | 32.6 | 35.6 | 0.0125 | 0.0025 | 0.0244 | 0.0194 | 0.0098
CC(C)[C@]12O[C@H]1[C@@H]1O[C@]13[C@]1(O[C@H]1C[C@H]1C4=C(CC[C@@]13C)C(=O)OC4)[C@@H]2O [triptolide] | 94 | 34.2 | 1.5 | 1.8 | 2.1 | 84.5 | 56.5 | 24.7 | 24.7 | 27.6 | 108 | 71.5 | 25.8 | 34.9 | 34.2 | 101 | 55.4 | 1.6 | 5.4 | 5.1 | 79.4 | 30 | 4.6 | 7.7 | 6.2 | 38.2 | 29.2 | 27.1 | 35.8 | 39.2 | 0.0063 | 0.0058 | 0.0121 | 0.0108 | 0.0036
C[C@H](CCC(=O)NCCS(=O)(=O)O)[C@H]1CC[C@H]2[C@@H]3[C@@H](O)C[C@@H]4C[C@H](O)CC[C@]4(C)[C@H]3CC[C@]12C [ursodeoxycholyltaurine] | 97.8 | 97.4 | 98.9 | 97.2 | 98.4 | 103 | 94.9 | 87.4 | 91.8 | 108 | 106 | 93.9 | 100 | 104 | 97 | 105 | 110 | 100 | 101 | 97.2 | 94.5 | 96.7 | 85.1 | 97.7 | 96.8 | 0 | 0 | 0 | 0 | 0 | > 10 | > 10 | > 10 | > 10 | > 10
